Assay results published in PubChem BioAssay (NCI).
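Where inhibition never reached the appropriate level, the endpoint shown equals the highest concentration tested. Otherwise, values were interpolated linearly from a five-concentration, 48-hour dose response in 96-well plates. Abbreviation: GI50, concentration required for 50% inhibition of growth. Definition used: TGI = concentration required for complete inhibition of growth.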

Legend:
Test in all cases: NCI-60 cell line screen, 48 h
[1] = tested on: UO-31 renal
[2] = tested on: SNB-75 CNS
[3] = tested on: SN12C renal
[4] = tested on: HCC-2998 colon
[5] = tested on: UACC-257 melanoma
[6] = tested on: IGROV1 ovarian
[7] = tested on: LOX IMVI melanoma
[8] = tested on: SK-MEL-5 melanoma
[9] = tested on: TK-10 renal
[10] = tested on: MDA-MB-231 breast

Structure (SMILES) | GI50 [1] | TGI [1] | GI50 [2] | TGI [2] | GI50 [3] | TGI [3] | GI50 [4] | TGI [4] | GI50 [5] | TGI [5] | GI50 [6] | TGI [6] | GI50 [7] | TGI [7] | GI50 [8] | TGI [8] | GI50 [9] | TGI [9] | GI50 [10] | TGI [10]
O=C(CCl)c1ccc([N+](=O)[O-])o1 | 2.14 µM | 6.7 µM | 3.06 µM | 9.16 µM | 2.38 µM | 7.27 µM | 5.36 µM | 11.2 µM | 1.83 µM | 3.93 µM | 5.5 µM | 14 µM | 1.47 µM | 3.19 µM | 4.11 µM | 15.7 µM | 1.79 µM | 3.49 µM | 4.9 µM | 13.7 µM
C[C@]12CC[C@H]3[C@@H](CCC4=CC(=O)CC[C@@H]43)[C@@H]1CC[C@@H]2OC(=O)N(CCCl)N=O | 0.837 µM | 14.1 µM | 0.317 µM | 16.4 µM | 1.69 µM | 21.4 µM | 2.2 µM | 12.4 µM | 10.7 µM | 24.8 µM | 0.172 µM | 15.8 µM | 1.1 µM | 23.9 µM | 1.99 µM | 16.1 µM | 11.1 µM | 43.8 µM | 14.2 µM | 37.9 µM
COc1cccc(C2=C(c3cn(C)c4ccccc34)C(=O)NC2=O)c1 | 10.8 µM | > 25 µM | 1.32 µM | > 25 µM | 12.5 µM | > 25 µM | > 22.1 µM | > 25 µM | 15.7 µM | > 25 µM | 21.8 µM | > 25 µM | 13 µM | > 25 µM | 4.61 µM | 10.1 µM | 13.3 µM | > 25 µM | 17.4 µM | > 25 µM
COc1ccc(Cn2nc(-c3cc(OC)c(OC)c(OC)c3)c3c2CCc2cnoc2-3)cc1OC | 4.17 µM | > 100 µM | 1.39 µM | 5.64 µM | 5.25 µM | > 100 µM | 5.85 µM | > 100 µM | 34.6 µM | > 100 µM | 7.28 µM | > 100 µM | 3.02 µM | > 100 µM | 2.78 µM | 12 µM | 10.1 µM | > 100 µM | 8 µM | > 100 µM
CCCN1C(=O)/C(=c2\sc3n(c2=O)C2C(NN=3)N(CC)C(=O)N2CC)c2ccccc21 (stereo not given) | 0.744 µM | 17.6 µM | 0.199 µM | 0.79 µM | 1.26 µM | 20.1 µM | 1.56 µM | 19.6 µM | 1.22 µM | 14 µM | 0.876 µM | 14.1 µM | 0.629 µM | 18.8 µM | 0.369 µM | 3.15 µM | 3.62 µM | 22.3 µM | 1.41 µM | 12.4 µM
CCOC(=O)Cc1c[nH]c(=S)[nH]c1=O | > 100 µM | > 100 µM | > 100 µM | > 100 µM | > 100 µM | > 100 µM | > 100 µM | > 100 µM | > 100 µM | > 100 µM | > 100 µM | > 100 µM | > 100 µM | > 100 µM | > 100 µM | > 100 µM | > 100 µM | > 100 µM | > 100 µM | > 100 µM
